Test results published in patent US4795639A, “Potentiating formulations” (priority 1971, dated 1989).
Several values for one entry are separate records, joined by “and”; a condition that tells them apart may be missing. Equal entries are not always repeated.

Legend:
[1] = test system: Escherichia coli CN 314; test: testing discs on standard nutrient medium; assay type: cell-based; conditions: Escherichia coli, CN314; read-out: Size of zone in cm (×6 magnification)
[2] = test system: Staphylococcus aureus; test: M.I.C. in Wellcome Nutrient Agar, 18 hours at 37° C.; assay type: cell-based
[3] = target: T1, hydroxymethyldihydropteridine pyrophosphokinase (HMPPS) (Escherichia coli, UniProt P26281); test: HMPPS assay: transfer of terminal phosphate of ATP-γ-P^32 to Pt; assay type: biochemical, E. coli
T1 construct: obtained from an extract of E. coli; endogenous in cells; host or cells: E. coli extract; HMPPS separated from synthetase on Sephadex G-100 (method of Richey and Brown 1969)
T1 sequence (P26281 whole entry): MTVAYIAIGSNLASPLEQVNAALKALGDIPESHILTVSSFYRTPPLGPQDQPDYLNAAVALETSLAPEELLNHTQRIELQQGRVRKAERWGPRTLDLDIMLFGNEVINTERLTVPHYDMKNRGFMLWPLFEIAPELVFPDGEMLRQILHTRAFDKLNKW
Source text: (a) An assay for HMPPS was developed in which the transfer of the terminal phosphate of ATP-γ-P^32 to Pt could be monitored and correlated with the amount of inhibition of HMPPS by the compound under test.
The compound under test was incorporated into various formulations comprising metabolites and enzymes contained in test tubes, as indicated in TABLE 1.
II--a source of HMMP S, obtained from an extract of E. coli and separated from `synthetase` on Sephadex G-100, according to the method of Richey and Brown in J. Biol. Chem. 244, 1582-1592 (1969)
Control tubes 10 to 12 include a source of both HMPPS and synthetase, unlabelled ATP, 0.1M MgCl2.6H2 O and labelled pAB.
Tubes 1 to 9 containing the amounts of components shown in the Table, were filled up to 200 μl with distilled water, incubated for 60 minutes at 37° C. and then chilled on ice. Dextrose (20 μl containing 72.1 mg/ml) and hexokinase (5 μl containing 2000 units/ml) were added to the solution, which was then allowed to stand at room temperature for 15 minutes. `Darco-G-60` (Registered Trade Mark) (10 mg) was added to each tube and the contents mixed periodically for 10 minutes. The charcoal was removed through a "Millipore AP 250 2200" (Registered Trade Mark) filter and the filter was washed with three 10 ml portions of cold water. The Charcoal and the filter were then radioactively counted.
The radioactive count from the contents of tubes 2 and 3 was taken as the maximum count, since these tubes contained no test compound and thus gave 0% enzyme inhibition. The percentage inhibition produced by the contents of the remaining tubes could then be calculated by relating their radioactive count to the maximum, as determined above.

[4] = test system: Pseudomonas aeruginosa; test: zone inhibition, pteridine in agar, drugs in well; assay type: cell-based; conditions: for complete zone inhibition, SMX (300) / zone including partial inhibition, SMX (300): SMX 300 μg/ml; for zone including partial inhibition, TMP (30): TMP 30 μg/ml; for complete zone inhibition, TMP + SMX (5) (100) / zone including partial inhibition, TMP + SMX (5) (100): TMP 5 + SMX 100 μg/ml
Description: The pteridine was included in a soya peptone medium of low thymidine content (Wellcotest Sensitivity Test Agar) contained in a Petri-dish and the other component(s) added to the well resulting from the removal of a small plug from the medium. The surface of the medium was inoculated with the test organism and then incubated.

[5] = test system: Proteus vulgaris CN 329; test: testing discs on standard nutrient medium; assay type: cell-based; conditions: Proteus vulgaris, CN329; read-out: Size of zone in cm (×6 magnification)
[6] = test system: E. acervulina; test: coccidiosis screening test in chicks, E. acervulina; assay type: in vivo
Description: "Screening tests" were performed to establish the effectiveness of the compounds of formula (I) both alone and in combination with a competitor and or an inhibitor and to determine the most useful levels of relative concentrations of each component in combatting or suppressing coccidiosis.
Groups of Ranger cockerels, housed in small, heated cages with wire floors situated in enironmentally controlled isolation rooms, were infected orally with sporulated oocysts of the Eimeria spp such as E. tenella or E. acervulina. The appropriate test compound(s), (DMHP, sulphaquinoxaline (SQX) or diaveridine (DV) or any combination of these) were incorporated in a small quantity of specially formulated laboratory ration deficient in Vitamin K (`L.D.4 mash`), as a 1/10 pre-mix, which was then mixed into the diet on a horizontal roller drum mixed and administered to groups of chicks one day prior to infection, leaving some groups as untreated controls. […]
The amount of damage, marked by lesions in the caecal walls was investigated in those chicks that died during the course of the experiment, and in those sacrificed on the final day of administration, and compared with the untreated controls as a basis for the determination of therapeutic activity. In addition the mortality rate and the percentage weight gains in the various groups were assessed. […]

[7] = final concn. 0.93 × 10^-4 M, tubes 8, 9

For `CC1(C)Nc2nc(N)nc(O)c2N=C1CO` [DMHP, 2-amino-4-hydroxy-6-hydroxymethyl-7,7-dimethyl-7,8-dihydropteridine], the zone of inhibition at 100 µg/disc [1] was 0 mm, the “Sulphamethoxazole increase in Activity” value ([2]; Conc. of DMHP 3.1 μg/ml) was 1 × and the “Trimethoprim in the Presence of × 20 sulphamethoxazol increase in Activity” value ([2]; Conc. of DMHP 3.1 μg/ml) was 10 ×. For the same compound, the “Trimethoprim increase in Activity” value ([2]; Conc. of DMHP 3.1 μg/ml) was 10 ×, the “Sulphamethoxazole increase in Activity” value ([2]; Conc. of DMHP 6.2 μg/ml) was 10 × and the “Trimethoprim in the Presence of × 20 sulphamethoxazol increase in Activity” value ([2]; Conc. of DMHP 6.2 μg/ml) was 30 ×. For the same compound, the “Trimethoprim increase in Activity” value ([2]; Conc. of DMHP 6.2 μg/ml) was 30 ×, the “Sulphamethoxazole increase in Activity” value ([2]; Conc. of DMHP 25 μg/ml) was 100 × and the “Trimethoprim in the Presence of × 20 sulphamethoxazol increase in Activity” value ([2]; Conc. of DMHP 25 μg/ml) was over 300 ×. For the same compound, the “Trimethoprim increase in Activity” value ([2]; Conc. of DMHP 25 μg/ml) was 300 ×, the IC50 [3] was 2 to 4 µM and the “% Inhibn.” value [3, 7] was 95%. For the same compound, the inhibition at 93 µM [3, 7] was 98%, the “% Inhibn.” value ([3]; final concn. 1 × 10^-5 M, tubes 6, 7) was 87% and 55% and the inhibition at 2.5e-10 µM ([3]; read-out: % Inhibn., test compound final concn., tubes 4, 5) was 44%. For the same compound, the “% Inhibn.” value ([3]; test compound final concn., tubes 4, 5) was 33%, the “complete zone inhibition, SMX (300)” value ([4]; pteridine 3 μg/ml) was 9.0 centimeters and the “zone including partial inhibition, SMX (300)” value ([4]; pteridine 3 μg/ml) was 14.0 centimeters. The “zone including partial inhibition, TMP (30)” value ([4]; pteridine 3 μg/ml) was 5.0 centimeters, the “complete zone inhibition, TMP + SMX (5) (100)” value ([4]; pteridine 3 μg/ml) was 8.0 centimeters and the “zone including partial inhibition, TMP + SMX (5) (100)” value ([4]; pteridine 3 μg/ml) was 11.0 centimeters. For the same compound, the “complete zone inhibition, SMX (300)” value ([4]; pteridine 10 μg/ml) was 15.0 centimeters, the “zone including partial inhibition, SMX (300)” value ([4]; pteridine 10 μg/ml) was 20.0 centimeters and the “zone including partial inhibition, TMP (30)” value ([4]; pteridine 10 μg/ml) was 6.0 centimeters. The “complete zone inhibition, TMP + SMX (5) (100)” value ([4]; pteridine 10 μg/ml) was 12.0 centimeters, the “zone including partial inhibition, TMP + SMX (5) (100)” value ([4]; pteridine 10 μg/ml) was 15.0 centimeters and the zone of inhibition at 100 µg/disc [5] was 0 mm. For the same compound, the “Total Oocysts × 10^6 Days 5 & 6” value ([6]; Expt. 8, 5,000,000 oocysts, SQX/DV/DMHP p.p.m: b497-499 -/-/30, 10, 5, b500 10/10/-, b502 10/10/30, b504 10/10/10, b506 10/10/5) was 0.0 × 10^6 and the “activity alone against moderate infection with E. acervulina” value ([6]; concentrations of 250 and 90 p.p.m) was “active alone”.
